Assay results from patent US5223526A, “Pyrazole carboxanilide fungicides and use” (Monsanto Company, priority 1992, dated 1993).

Key:
[1] = target: T1, succinate dehydrogenase (Botrytis cinerea, UniProt A0A384J5E4+A0A384J8V8+A0A384JHJ5); assay: Enzyme inhibition: succinate dehydrogenase activity in Botrytis cinerea mitochondria (DCPIP reduction); type: biochemical; conditions: concentration required to inhibit the rate of DCPIP reduction by 50%; Botrytis cinerea isolate Nick mitochondria; read-out: I50 (μM conc.)
T1 construct: succinate-DCPIP reductase assay with KCN
T1 sequence (A0A384J5E4 1-300): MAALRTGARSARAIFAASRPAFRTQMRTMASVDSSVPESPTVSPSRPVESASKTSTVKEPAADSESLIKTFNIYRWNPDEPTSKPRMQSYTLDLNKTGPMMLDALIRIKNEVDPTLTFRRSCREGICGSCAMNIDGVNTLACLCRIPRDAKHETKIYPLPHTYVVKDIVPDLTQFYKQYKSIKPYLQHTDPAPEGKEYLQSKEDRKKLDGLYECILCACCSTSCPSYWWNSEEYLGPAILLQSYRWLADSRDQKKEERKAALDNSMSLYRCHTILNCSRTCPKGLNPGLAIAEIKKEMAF
T1 sequence (A0A384J8V8 1-189): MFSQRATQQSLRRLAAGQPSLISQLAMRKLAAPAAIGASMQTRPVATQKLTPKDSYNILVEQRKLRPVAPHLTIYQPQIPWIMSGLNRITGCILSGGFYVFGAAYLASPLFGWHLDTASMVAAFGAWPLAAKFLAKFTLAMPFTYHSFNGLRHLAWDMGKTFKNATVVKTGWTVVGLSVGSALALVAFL
T1 sequence (A0A384JHJ5 1-192): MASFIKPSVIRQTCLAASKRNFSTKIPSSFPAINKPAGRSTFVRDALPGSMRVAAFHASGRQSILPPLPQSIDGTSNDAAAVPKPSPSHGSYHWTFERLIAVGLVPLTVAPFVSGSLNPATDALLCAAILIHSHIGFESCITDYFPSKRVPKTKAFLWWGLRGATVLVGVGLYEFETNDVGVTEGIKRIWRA
T1 sequence (A0A384K456 1-647 partner): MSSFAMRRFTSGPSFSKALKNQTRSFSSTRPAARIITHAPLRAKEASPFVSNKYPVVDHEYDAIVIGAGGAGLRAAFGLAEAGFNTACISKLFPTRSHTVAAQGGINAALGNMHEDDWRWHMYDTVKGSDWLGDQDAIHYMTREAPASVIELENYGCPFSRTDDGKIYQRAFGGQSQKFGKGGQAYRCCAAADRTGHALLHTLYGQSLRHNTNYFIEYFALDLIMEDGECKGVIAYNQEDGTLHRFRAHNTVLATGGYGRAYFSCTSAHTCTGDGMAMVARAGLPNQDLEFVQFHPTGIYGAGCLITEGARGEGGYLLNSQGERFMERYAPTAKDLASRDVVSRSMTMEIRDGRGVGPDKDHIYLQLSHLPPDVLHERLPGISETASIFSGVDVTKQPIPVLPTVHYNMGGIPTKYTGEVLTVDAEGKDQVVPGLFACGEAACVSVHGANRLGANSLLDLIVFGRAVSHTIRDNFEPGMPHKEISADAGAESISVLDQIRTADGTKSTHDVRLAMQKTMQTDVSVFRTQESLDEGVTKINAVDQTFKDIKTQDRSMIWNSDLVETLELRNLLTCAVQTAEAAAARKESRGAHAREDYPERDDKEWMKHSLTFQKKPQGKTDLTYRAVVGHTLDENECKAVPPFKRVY
Protocol: Mitochondria were isolated by a method adapted from G.A. White [Biochem. Biophys. Res. Commun. 44: 1212, 1971]. Twenty to thirty grams of Botrytis cinerea isolate Nick were resuspended in 250 mL 0.25M sucrose, 5mM Na4 EDTA, pH 7.0 (+) 0.15% (w/v) bovine serum albumin (BSA) and placed in a Bead Beater chamber (Biospec Products, Bartlesville, Ok.). Zirconium oxide beads (0.5mm) were added to finish filling the chamber. Four 30 second beats separated by 2 minute temperature equilibration periods in the cold were used to break the mycelia. A crude mitochondrial preparation was harvested from the homogenate by differential centrifugation at 4° C. and resuspended in BSA-free sucrose/EDTA media and used for SDH assays.
The succinate dehydrogenase activity was measured at 600 nm in 50 mM potassium phosphate, pH 7.2, 1 mM KCN, 45 μM 2,6-dichlorophenolindophenol (DCPIP) and 17 mM disodium succinate (final volume, 1 mL) with a Perkin-Elmer Lambda 7 ultraviolet-visible spectrophotometer. The test compounds were added as acetone solutions (final concentration of acetone, 1% (v/v)). The mitochondrial preparatons were used to initiate the reaction. All rates were corrected for endogenous activities minus succinate. Semilog plots of percentage inhibition versus test compound concentration were used to determine inhibition expressed as I50 (μM) which is the concentration required to inhibit the rate of DCPIP reduction by 50%. The commercial fungicide carboxin was used as standard throughout.

[2] = test system: Botrytis cinerea; assay: Eggplant grey mold; type: in vivo; design: scale not given here; conditions: inoculated 24 h later, rated after 3-4 days; for Disease Control Rating at 500 ppm: eggplant sprayed with 500 ppm; for Disease Control Rating at 20 ppm: eggplant sprayed with 20 ppm; for Disease Control Rating at 100 ppm: eggplant sprayed with 100 ppm
Protocol: Eggplant seed are planted in 2.25" square pots, six per pot, and maintained in growth chambers set at 23° C., 80% humidity, and 12 h photoperiod. When the plants are at the cotyledon stage (14-18 days afterplanting), the plants are sprayed with 1.5 mL/pot of 500, 100 or 20 ppm 2:3 acetone:water (with 0.5% Tween® 20) formulations of the test compounds.
Twenty-four hours later the plants are inoculated with Botrytis cinerea, approximately 0.5 mL/pot of a 4×10^6 spore/mL suspension. The plantes are incubated at 23° C. and 100% humidity for 3-4 days, at which time disease control ratings are made based on presence and severity of Botrytis lesions.

[3] = test system: Botrytis cinerea; assay: Vine grey mold (grape berries); type: in vivo; conditions: average of six berries, 7-10 days; for pest or weed control at 50 ppm: grape berries treated with 50 ppm, read-out: % DISEASE CONTROL 50 ppm; for pest or weed control at 200 ppm: grape berries treated with 200 ppm, read-out: % DISEASE CONTROL 200 ppm
Protocol: Grape berries, which have been washed and surfaced sterilized in 70% ethanol for one minute, are, except for the negative controls, treated with 0.2 mL of a 2:3 acetone/water formulation (containing 0.05% Tween® 20) of 200 or 50 ppm of the test compounds and placed one per well in 12-well plates. Six berries per treatment level are used. Twenty-four hours later each berry is inoculated with Botrytis cinerea conidia, 0.2 mL of 10^6 spores/mL suspension. The plates are incubated at 20° C. with a 12 hours photoperiod for 7-10 days and the percent surface area infected with the disease is determined for each replicate using the values of 0, 1, 2, 5, 7, 10, 15, 20, 25, 30, 35, 40, 45, 50, 55, 60, 65, 70, 75, 80, 85, 90, 95, and 100%. Treatment means are calculated and percent disease control is determined by the formula [(control mean - treatment mean)/control means]×100.
Some of the compounds have been tested more than once and the results shown are the average of the number of tests reported.

[4] = test system: Rhizoctonia solani; assay: Rice sheath blight; type: in vivo; design: scale not given here; conditions: inoculated two days later, rated after 7 days, average of five plants; for Disease Control Rating at 0.02 mg/mL: foliage and soil sprayed with 0.02 mg/mL; for Disease Control Rating at 0.1 mg/mL: foliage and soil sprayed with 0.1 mg/mL; for Disease Control Rating at 0.5 mg/mL: foliage and soil sprayed with 0.5 mg/mL
Protocol: Rice plants, 11 to 15 days old, are grown in 7.65 cm^2 pots. Each plant in the treatment groups is treated by spraying both the foliage and the soil surface, each with 2 mL of a water/acetone/Tween®20 formulation containing 0.5, 0.1, or 0.02 mg/mL of Compound A. The pots are placed in flood trays which are filled with water to just below the soil line. Two days later, approximately two grams of Rhizoctonia solani inoculum, cultured on rice grain for four to eight weeks, is applied to the base of the rice plants in each pot. After 7 days in a 25° C. high humidity growth chamber, each plant is evaluated for the level of disease contro as compared to untreated controls by the following scale and the average of five plants per treatment level is calculated.

| Structure (SMILES) | IC50 [1] [µM] | Disease Control Rating at 500 ppm [2] | pest or weed control at 50 ppm [3] [%] | pest or weed control at 200 ppm [3] [%] | Disease Control Rating at 0.02 mg/mL [4] | Disease Control Rating at 0.1 mg/mL [4] | Disease Control Rating at 0.5 mg/mL [4] | Disease Control Rating at 20 ppm [2] | Disease Control Rating at 100 ppm [2] |
| --- | --- | --- | --- | --- | --- | --- | --- | --- | --- |
| Cn1cc(C(=S)Nc2ccccc2[C@@H]2C[C@H]3CC[C@@H]2C3)c(C(F)F)n1 (relative stereo) [Example 102, 1H-pyrazole-4-carbothioamide, N-(2-bicyclo[2.2.1]hept-2-ylphenyl)-3-(difluoromethyl)-1-methyl-, exo-] | 16 | 1 | 88 | 83 | 3 | 3 | 3 | – | – |
| Cn1cc(C(=O)Nc2ccccc2CC2=CCCC2)c(C(F)F)n1 [Example 117, 1H-pyrazole-4-carboxamide, N-[2-(1-cyclopenten-1-ylmethyl)phenyl]-3-(difluoromethyl)-1-methyl-] | 0.17 | 2 | 80 | 19 | – | – | 0 | 0 | 1 |
| Cn1cc(C(=O)Nc2ccccc2OC2(C)CCCC2)c(C(F)F)n1 [Example 35, 1H-pyrazole-4-carboxamide, 3-(difluoromethyl)-1-methyl-N-[2-(1-methylcyclopentyloxy)phenyl]-] | 0.012 | 3 | 42 | 46 | 2 | 3 | 3 | 2 | 3 |
| Cc1c(C(=S)Nc2ccccc2[C@@H]2C[C@H]3CC[C@@H]2C3)c(Cl)nn1C (relative stereo) [Example 103, 1H-pyrazole-4-carbothioamide, N-(2-bicyclo[2.2.1]hept-2-ylphenyl)-3-chloro-1,5-dimethyl-, exo-] | 0.52 | 0 | 5 | 18 | – | – | 0 | – | – |
| Cc1c(C(=O)Nc2ccccc2[C@@H]2C[C@H]3CC[C@@H]2C3)c(C(F)(F)F)nn1C (relative stereo) [Example 100, 1H-pyrazole-4-carboxamide, N-(2-bicyclo[2.2.1]hept-2-ylphenyl)-1,5-dimethyl-3-(trifluoromethyl)-, exo-] | 0.19 | 0 | 0 | 22 | 0 | 1 | 2 | – | – |
| Cn1cc(C(=O)Nc2cc(Cl)ccc2C2CCCCC2)c(C(F)(F)F)n1 [Example 94, 1H-pyrazole-4-carboxamide, N-(5-chloro-2-cyclohexylphenyl)-1-methyl-3-(trifluoromethyl)-] | 0.074 | 0 | 0 | 0 | – | – | 0 | – | – |
| Cn1cc(C(=O)Nc2ccccc2C2CCCCCC2)c(C(F)(F)F)n1 [Example 10, 1H-pyrazole-4-carboxamide, N-(2-cycloheptylphenyl)-1-methyl-3-(trifluoromethyl)-] | 0.003 | 2 | 87 | 85 | 2 | 3 | 3 | 2 | 2 |
| Cn1cc(C(=O)Nc2ccccc2C=C2CCCC2)c(C(F)(F)F)n1 [Example 127, 1H-pyrazole-4-carboxamide, N-[2-(cyclopentylidenemethyl)phenyl]-1-methyl-3-(trifluoromethyl)-] | 0.083 | 1 | 12 | 52 | – | – | 2 | 0 | 0 |
| Cn1nc(C(F)(F)F)c(C(=O)Nc2ccccc2C2CCCCCC2)c1F [Example 86, 1H-pyrazole-4-carboxamide, N-(2-cycloheptylphenyl)-5-fluoro-1-methyl-3-(trifluoromethyl)-] | 0.0063 | 0 | 66 | 82 | 3 | 3 | 3 | – | – |
| Cc1ccccc1NC(=O)c1c(C)nn(C)c1C [Compound H, N-(2-methylphenyl)-1,3,5-(trimethyl)-4-pyrazolecarboxamide, reference compound] | 475 | 0 | 5 | 9 | – | – | 0 | – | – |
| Cn1cc(C(=O)Nc2ccccc2CC2CCCC2)c(C(F)(F)F)n1 [Example 142, 1H-pyrazole-4-carboxamide, N-[2-(cyclopentylmethyl)phenyl]-1-methyl-3-(trifluoromethyl)-] | 0.22 | 1 | 0 | 18 | – | – | 3 | 0 | 1 |
| Cn1cc(C(=O)Nc2ccccc2C2=CCCCC2C(C)(C)C)c(C(F)(F)F)n1 (stereo not drawn) [Example 141, 1H-pyrazole-4-carboxamide, N-[2-[6-(1,1-dimethylethyl)-1-cyclohexen-1-yl]phenyl]-1-methyl-3-(trifluoromethyl)-] | 0.049 | 1 | 12 | 12 | – | – | 3 | 0 | 0 |
| Cn1cc(C(=O)Nc2ccccc2C2CCCCC2)c([N+](=O)[O-])n1 [Example 62, 1H-pyrazole-4-carboxamide, N-(2-cyclohexylphenyl]-1-methyl-3-nitro-] | 0.29 | 1 | 0 | 0 | – | – | 0 | 0 | 0 |
| CCC1CCCC(C)=C1c1ccccc1NC(=O)c1cn(C)nc1C(F)(F)F (stereo not drawn) [Example 138, 1H-pyrazole-4-carboxamide, N-[2-(6-ethyl-2-methyl-1-cyclohexen-1-yl)phenyl]-1-methyl-3-(trifluoromethyl)-] | 0.13 | 0 | 0 | 4 | – | – | 2 | 0 | 0 |
